Assay results: patent publication US8367873B2, “Phenyl-substituted bicyclooctane-1,3-dione derivatives” (Bayer Cropscience AG, priority 2008, dated 2013)

Experiments:
Assay type in all cases: in vivo
[1] = tested on: monocotylidonous and dicotylidonous weed and crop plants; experiment: Herbicidal pre-emergence action (other test plants); conditions: pre-emergence method, 80 g/ha, greenhouse, visual assessment vs untreated controls
Outline: (§1)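 Seeds sown in sandy loam and covered; WP-formulated compounds applied to the soil surface as aqueous suspension at 600 l/ha with 0.2% wetting agent, at varying rates. Greenhouse-grown; emergence damage scored visually after three weeks versus untreated controls (100% = plants dead, 0% = like control).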

Lolium multiflorum [2] = experiment: Herbicidal post-emergence action; conditions: post-emergence method, 80 g/ha
Outline: (§2)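 Post-emergence spray test: wettable-powder formulations are applied at different amounts to one-leaf-stage plants in 600 l/ha water containing 0.2% wetting agent. After roughly three weeks in the greenhouse, percent effect is rated visually relative to untreated controls.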

Echinocloa crus-galli [3] = experiment: Herbicidal post-emergence action; conditions: post-emergence method, 80 g/ha
Outline: as §2

Setaria viridis [4] = experiment: Herbicidal post-emergence action; conditions: post-emergence method, 80 g/ha
Outline: as §2

Alopecurus myosuroides [5] = experiment: Herbicidal post-emergence action; conditions: post-emergence method, 80 g/ha
Outline: as §2

[6] = tested on: monocotylidonous and dicotylidonous weed and crop plants; experiment: Herbicidal post-emergence action (other test plants); conditions: post-emergence method, 80 g/ha
Outline: as §2

Lolium multiflorum [7] = experiment: Herbicidal pre-emergence action; conditions: pre-emergence method, 80 g/ha, greenhouse, visual assessment vs untreated controls
Outline: as §1

Echinocloa crus-galli [8] = experiment: Herbicidal pre-emergence action; conditions: pre-emergence method, 80 g/ha, greenhouse, visual assessment vs untreated controls
Outline: as §1

Setaria viridis [9] = experiment: Herbicidal pre-emergence action; conditions: pre-emergence method, 80 g/ha, greenhouse, visual assessment vs untreated controls
Outline: as §1

Alopecurus myosuroides [10] = experiment: Herbicidal pre-emergence action; conditions: pre-emergence method, 80 g/ha, greenhouse, visual assessment vs untreated controls
Outline: as §1

| Structure (SMILES) | herbicidal effect AVEFA [1] [%] | herbicidal effect against LOLMU (Lolium multiflorum) (Lolium multiflorum [2]) [%] | herbicidal effect against ECHCG (Echinochloa crus-galli) (Echinocloa crus-galli [3]) [%] | herbicidal effect against SETVI (Setaria viridis) (Setaria viridis [4]) [%] | herbicidal effect against ALOMY (Alopecurus myosuroides) (Alopecurus myosuroides [5]) [%] | herbicidal effect against AVEFA (Avena fatua) [6] [%] | herbicidal effect LOLMU (Lolium multiflorum [7]) [%] | herbicidal effect ECHCG (Echinocloa crus-galli [8]) [%] | herbicidal effect SETVI (Setaria viridis [9]) [%] | herbicidal effect ALOMY (Alopecurus myosuroides [10]) [%] |
| --- | --- | --- | --- | --- | --- | --- | --- | --- | --- | --- |
| C=C1CC2C(=O)C(c3c(C)cc(C)cc3C)=C(OC(=O)C(C)C)C2C1 (stereo not drawn) [I-b-38] | 70 | 70 | 90 | 90 | 40 | 0 | 60 | 80 | 80 | 80 |
| CCc1cc(C)cc(C)c1C1=C(OC(=O)C(C)C)C2CC3(CC2C1=O)OCCO3 (stereo not drawn) [I-b-79] | 70 | 100 | 100 | 100 | 90 | 100 | 100 | 100 | 80 | 70 |
| Cc1cc(C)c(C2=C([O-])C3CC4(CC3C2=O)OCCO4)c(C)c1.[Na+] (stereo not drawn) [I-f-11] | 50 | 100 | 90 | 80 | 60 | 40 | 100 | 0 | 20 | 40 |
| CCc1cc(C)cc(CC)c1C1=C(OC(=O)OC)[C@H]2C[C@]3(COC(C)(C)O3)C[C@H]2C1=O (relative stereo) [I-c-4] | 80 | 100 | 100 | 0 | 90 | 90 | 90 | 60 | 50 | 90 |
| CCc1cc(C)cc(CC)c1C1=C(O)[C@H]2CC3(C[C@H]2C1=O)OCC(OC)CO3 (relative stereo) [I-a-26] | 70 | 100 | 100 | 100 | 100 | 100 | 100 | 100 | 100 | 100 |
| CCOC(=O)OC1=C(c2c(C)cc(C)cc2C)C(=O)C2CC3(CC12)OCCCCO3 (racemic) [I-c-50] | 0 | 100 | 80 | 80 | 60 | 0 | 100 | 0 | 0 | 30 |
| C=C1CC2C(=O)C(c3c(C)cc(C)cc3OC)=C(OC(=O)OCC)C2C1 (racemic) [I-c-61] | 60 | 70 | 90 | 90 | 40 | 0 | 50 | 90 | 90 | 70 |
| CCc1cc(C)cc(CC)c1C1=C(OC(=O)OC)C2CC3(CC2C1=O)OCC=CCO3 (stereo not drawn) [I-c-21] | 70 | 100 | 100 | 100 | 90 | 100 | 100 | 100 | 100 | 90 |
| CCOC(=O)OC1=C(c2c(CC)cc(C)cc2CC)C(=O)[C@@H]2CC3(C[C@H]12)OCC=CCO3 (relative stereo) [I-c-11] | 70 | 90 | 100 | 90 | 80 | 80 | 90 | 100 | 90 | 90 |
| COc1cc(C)cc(C)c1C1=C([O-])C2CC3(CC2C1=O)OCCCO3.[Na+] (stereo not drawn) [I-f-4] | 50 | 100 | 100 | 100 | 100 | 90 | 100 | 90 | 50 | 0 |
| C=C1CC2C(=O)C(c3c(C)cc(C)cc3CC)=C(OC(=O)C(C)(C)C)C2C1 (stereo not drawn) [I-b-73] | 80 | 70 | 100 | 100 | 0 | 0 | 100 | 90 | 100 | 80 |
| C=C1COC2(CC3C(=O)C(c4c(CC)cc(C)cc4CC)=C([O-])C3C2)OC1.[Na+] (stereo not drawn) [I-f-20] | 70 | 100 | 100 | 100 | 100 | 100 | 100 | 100 | 100 | 100 |
| CCC(=O)OC1=C(c2c(C)cc(C)cc2CC)C(=O)C2CC3(COC(C)(C)O3)CC12 (stereo not drawn) [I-b-67] | 90 | 100 | 100 | 90 | 100 | 70 | 100 | 100 | 90 | 90 |
| C=C1CC2C(=O)C(c3c(C)cc(C)cc3CC)=C(OC(=O)OC)C2C1 (racemic) [I-c-77] | 80 | 90 | 100 | 90 | 0 | 0 | 90 | 80 | 100 | 80 |
| CCOC(=O)OC1=C(c2c(CC)cc(C)cc2CC)C(=O)C2CC3(CC12)OCC(OC)CO3 (stereo not drawn) [I-c-25] | 90 | 100 | 100 | 100 | 100 | 100 | 100 | 100 | 80 | 100 |
| CCOC(=O)OC1=C(c2c(C)cc(C)cc2OC)C(=O)C2CC3(CC12)OCCCCO3 (racemic) [I-c-66] | 70 | 100 | 100 | 100 | 100 | 100 | 100 | 100 | 60 | 100 |
| Cc1cc(C)c(C2=C(OC(=O)C(C)(C)C)C3CC4(COC(C)(C)O4)CC3C2=O)c(C)c1 (mixture of isomers) [I-b-48] | 20 | 90 | 90 | 80 | 90 | 40 | 70 | 0 | 0 | 80 |
| Cc1cc(C)c(C2=C(O)C3CC4(CC3C2=O)OCCO4)c(C)c1 (stereo not drawn) [I-a-39] | 70 | 100 | 90 | 90 | 100 | 20 | 100 | 0 | 30 | 80 |
